Experimental data published in patent publication US4921960A, “Quinoline thioethers” (priority 1987, dated 1990).

What was measured:
[1] = test system: Male CFY rats; test: "Conflict" test: water consumption of food-deprived rats without punishment and in punished situation (anti-anxiety versus sedative effect); type: in vivo, rat; conditions: for Sedative dose (numerator of ratio): as printed in b54 without unit, see Tables I and III; for Water consumption (ml) punished situation / Water consumption (ml) without punishment: 30 min prior; for Ratio between the sedative and anxiolytic dose: Tables I and III; for Anxiolytic effect in presence of RO-15-1788 (selective benzodiazepine receptor antagonist): Tables II and IV
Experimental: The essential strategy for measuring the anti-anxiety effecct of a drug is to check its activity in a conflict situation. We elicit a rewarded response, then suppress that response by punishing it when it occurs and the anti-anxiety effect is measured by the drug-induced increase in punished responding, whereas the sedative effect is measured by the drug-induced decrease of unpunished responding.
This means that when we circuit the drinking tube and the grid floor of the cage and the rat is regularly shocked by trying to drink, the very hungry animal, which cannot eat without drinking, is maximally forced to overcome the hindrance. This is a sensitive test to check the anti-anxiety effect of a compound.
Male CFY rats, weighing 230-250 g, fed with standard food pellets and supplied with tap water ad libitum, were kept under controlled standard environmental conditions (room temperature between 22°-24° C.) in groups of ten for two weeks until used in the experiment. The rats kept in single cages during starvation were deprived of food for 96 hours and supplied with tap water ad libitum before the experiment.
Another aspect of the selection of the animals for the experiment was their visible physical fitness and normal activity after starvation.
A clear Plexiglass box (39×27×12 cm) with a stainless-steel grid floor supplied with a tray for the food pellets and with a drinking tube was used for the experiment. The grid floor, the drinking tube and an electric stimulator (Grass S48) were connected and electric shocks in this circuit were delivered for 10 s duration with 20 s intervals. The parameters of the current (100 V; 25 ohm; 7.5 ms; 5 Hz) were empirically selected using those electric shocks which inhibited the water consumption of the very hungry rats to one third of the control (unpunished) level.
The rats spend one hour in the apparatus after 96 hours of food deprivation.
The drugs were administered parenterally in doses of 0.5 ml/100 g body weight. We refrained from the oral administration of the compounds because of the long term food deprivation.
The Student t-test was used for statistical analysis. The anxiolytic effect was established in punished animals and the sedative effect in unpunished rats.

[2] = test system: benzodiazepine receptors; test: In vitro binding, 3H-Diazepam displacement on rat brain membrane preparation; conditions: 2 nM 3H-Diazepam, rat cortex membranes; for Displacement of 3H-Diazepam from its receptor: 1 hr at 0-4 °C; for IC50 value: both drugs compared
Experimental: The in vitro binding of compound A in comparison to that of chlordiazepoxide was measured on rat brain membrane preparation. Male CFY rat cortex was homogenized in 0.32M sucrose using glass homogenizer with teflon pestle. Nucleus was spun down at 1000 g for 15 min. The supernatant was centrifuged at 40,000 g for 15 min. The pellet was homogenized in 5 mM TRIS-citrate buffer pH 7.1 by a Polytron P10 and it was lyzed for 15 min. at 0° C. After centrifugation at 40,000 g for 15 min. the pellet was taken up in 50 mM TRIS-citrate buffer pH 7.1 and kept overnight at -20° C. After thawing and centrifugation (40,000 g for 15 min.) the pellet was washed in 50 mM TRIS-citrate buffer pH 7.1 three times by centrifugation. The final pellet was taken up in the same buffer in 1:30 volume. Ligand: 2 nM ^3 H-Diazepam (sp. act. 86 Ci/mmol).
Incubation: 1 hr at 0°-4° C. in 50 mM TRIS-citrate buffer ph 7.1
Final protein concentration: ca. 0.5 mg/ml.
The binding was stopped by dilution with cold buffer and rapid filtration on GF/B Whatman filter paper.
For the displacement we used six different concentrations of drugs, run with 3 parallels. Experiments were repeated two times. Compound A was dissolved in cc. acetic acid and distilled water then the 10^-3 M solution was further diluted with incubation buffer. Blank solution was prepared in the same way without containing the drug. Chlordiazepoxide was dissolved in the incubation buffer.

[3] = Acute toxicity, oral LD50; conditions: rat, in vivo, CFY rats, deaths within 48 h, Litchfield and Wilcoxon
Experimental: Acute toxicity was assessed on CFY rats (100-160 g). Groups of 10 rats were used. Compound A was administered orally (in volume of 10 ml/kg). The animals starved for 16 h before the experiment. Each dose was administered to a group of animals equally subdivided into males and females. Deaths occurring within 48 h were considered. LD50 values were calculated on the basis of the graphical method of Litchfield and Wilcoxon.

[4] = test system: pentametazol induced convulsions in rats; test: Pentametazol induced convulsions; type: in vivo, rat; conditions: for Deaths of pretreated animals / Effect on pentametazol convulsions: 10 mg/kg prior to 120 mg/kg s.c. pentametazol
[5] = test system: strychnine induced convulsions in rats; test: Strychnine induced lethal convulsions; type: in vivo, rat
[6] = test system: picrotoxin induced convulsions in rats; type: in vivo, rat
[7] = test system: electroshock-induced convulsions in rats; test: Electroshock-induced lethal convulsions; type: in vivo, rat
[8] = chlordiazepoxide 0.05 mg/kg s.c.
[9] = chlordiazepoxide 0.1 mg/kg s.c.
[10] = chlordiazepoxide 0.25 mg/kg s.c.
[11] = chlordiazepoxide 0.5 mg/kg s.c.
[12] = chlordiazepoxide 2.5 mg/kg s.c.
[13] = pretreatment 200 mg/kg, 120 mg/kg s.c. pentametazol
[14] = up to the oral dose of 200 mg/kg, rats

CNC1=Nc2ccc(Cl)cc2C(c2ccccc2)=[N+]([O-])C1 [chlordiazepoxide]
Water consumption (ml) in punished situation ([1]; Table II: chlordiazepoxide 0.1 mg/kg s.c. + RO 15-1788 5 mg/kg i.p.): 4.1 ± 0.59 mL | Water consumption (ml) in punished situation ([1]; Table II: chlordiazepoxide 0.1 mg/kg s.c. + RO 15-1788 10 mg/kg i.p.): 3.9 ± 0.43 mL | Water consumption (ml) in punished situation ([1]; Table II: chlordiazepoxide 0.1 mg/kg s.c. + RO 15-1788 20 mg/kg i.p.): 2.8 ± 0.49 mL | Water consumption (ml) in punished situation ([1]; Table II: chlordiazepoxide 0.1 mg/kg s.c., RO 15-1788 none): 4.1 ± 0.31 mL | Sedative dose (numerator of ratio) [1]: 10 | Water consumption (ml) punished situation [1, 8]: 3.5 ± 0.47 mL | Water consumption (ml) without punishment [1, 8]: 5.1 ± 0.56 mL | Water consumption (ml) punished situation [1, 9]: 4.1 ± 0.31 mL | Water consumption (ml) without punishment [1, 9]: 5.8 ± 0.42 mL | Water consumption (ml) punished situation [1, 10]: 3.5 ± 0.62 mL | Water consumption (ml) without punishment [1, 10]: 6.2 ± 0.37 mL | Water consumption (ml) punished situation [1, 11]: 3.1 ± 0.54 mL | Water consumption (ml) without punishment [1, 11]: 7.4 ± 0.77 mL | Water consumption (ml) punished situation ([1]; chlordiazepoxide 1 mg/kg s.c.): 2.7 ± 0.58 mL | Water consumption (ml) without punishment ([1]; chlordiazepoxide 1 mg/kg s.c.): 5.4 ± 0.68 mL | Water consumption (ml) punished situation [1, 12]: 4.1 ± 0.39 mL | Water consumption (ml) without punishment [1, 12]: 5.2 ± 0.72 mL | Water consumption (ml) punished situation ([1]; chlordiazepoxide 5 mg/kg s.c.): 2.5 ± 0.31 mL | Water consumption (ml) without punishment ([1]; chlordiazepoxide 5 mg/kg s.c.): 5.4 ± 0.62 mL | Water consumption (ml) punished situation ([1]; chlordiazepoxide 10 mg/kg s.c.): 1.6 ± 0.26 mL | Water consumption (ml) without punishment ([1]; chlordiazepoxide 10 mg/kg s.c.): 1.8 ± 0.30 mL | Ratio between the sedative and anxiolytic dose ([1]; conflict test): 100 | Anxiolytic effect in presence of RO-15-1788 (selective benzodiazepine receptor antagonist) ([1]; conflict test): antagonized | Sedative dose range ([1]; subcutaneous, conflict test, unpunished rats): 10 mg/kg | Displacement of 3H-Diazepam from its receptor [2]: concentration dependent manner | IC50 value [2]: in the same range of concentration

CCSc1c(N)cnc2cc(Cl)ccc12.Cl [compound A, 3-amino-4-ethylthio-7-chloro-quinoline-hydrochloride]
LD50 at 48 h [3]: 465 mg/kg | Water consumption (ml) in punished situation ([1]; Table IV: compound A 5 μg/kg s.c. + RO 15-1788 10 mg/kg i.p.): 3.1 ± 0.69 mL | Water consumption (ml) in punished situation ([1]; Table IV: compound A 5 μg/kg s.c. + RO 15-1788 20 mg/kg i.p.): 2.4 ± 0.39 mL | Water consumption (ml) in punished situation ([1]; Table IV: compound A 5 μg/kg s.c., RO 15-1788 none): 4.2 ± 0.37 mL | Sedative dose (numerator of ratio) [1]: 2.5 | Water consumption (ml) punished situation ([1]; compound A 0.25 mg/kg s.c.): 3.0 ± 0.27 mL | Water consumption (ml) without punishment ([1]; compound A 0.25 mg/kg s.c.): 7.7 ± 0.45 mL | Water consumption (ml) punished situation ([1]; compound A 2.5 mg/kg s.c.): 1.9 ± 0.35 mL | Water consumption (ml) without punishment ([1]; compound A 2.5 mg/kg s.c.): 4.9 ± 0.91 mL | Water consumption (ml) punished situation ([1]; compound A 2.5 γ/kg s.c.): 2.2 ± 0.32 mL | Water consumption (ml) without punishment ([1]; compound A 2.5 γ/kg s.c.): 6.3 ± 0.46 mL | Water consumption (ml) punished situation ([1]; compound A 5 γ/kg s.c.): 3.8 ± 0.19 mL | Water consumption (ml) without punishment ([1]; compound A 5 γ/kg s.c.): 6.4 ± 0.33 mL | Water consumption (ml) punished situation ([1]; compound A 25 γ/kg s.c.): 3.7 ± 0.44 mL | Water consumption (ml) without punishment ([1]; compound A 25 γ/kg s.c.): 7.9 ± 0.58 mL | Anti-anxiety potency relative to chlordiazepoxide ([1]; conflict test): about 20 times | Ratio between the sedative and anxiolytic dose ([1]; conflict test): 500 | Anxiolytic effect in presence of RO-15-1788 (selective benzodiazepine receptor antagonist) ([1]; conflict test): antagonized | Displacement of 3H-Diazepam from its receptor [2]: concentration dependent manner | IC50 value [2]: in the same range of concentration | Influence on the anticonvulsant effect of diazepam (10 mg/kg) ([4]; compound A 200 mg/kg): no influence | Severity of the pentametazol convulsions [4, 13]: did not change | Survival of pretreated animals [4, 13]: none of the pretreated animals survived | Protection against pentametazol induced convulsions [4, 14]: ineffective | Influence on strychnine induced lethal convulsions ([5]; up to the 200 mg/kg dose level, strychnine 2.5 mg/kg s.c.): not influenced at all | Protection against strychnine induced convulsions [5, 14]: ineffective | Influence on picrotoxin induced lethal convulsions ([6]; pretreated rats, picrotoxin 10 mg/kg s.c.): remained unchanged | Protection against picrotoxin induced convulsions [6, 14]: ineffective | Animals died ([7]; 200 mg/kg, electroshock-induced lethal convulsions): 70% | Protection against electroshock-induced convulsions [7, 14]: only slightly effective

CCC1(c2ccccc2)C(=O)NC(=O)NC1=O [phenobarbital Na]
Deaths of pretreated animals [4]: none of the pretreated animals died | Effect on pentametazol convulsions [4]: mitigated the convulsions | Animals died ([5]; 50 mg/kg, strychnine 2.5 mg/kg s.c.): 40% | Animals died ([6]; 50 mg/kg, picrotoxin 10 mg/kg s.c.): 80% | Protection against electrogenic convulsions ([7]; 30-50 mg/kg): completely protected

CN1C(=O)CN=C(c2ccccc2)c2cc(Cl)ccc21 [diazepam]
Deaths of pretreated animals [4]: none of the pretreated animals died | Effect on pentametazol convulsions [4]: mitigated the convulsions | Animals died ([5]; 10 mg/kg, strychnine 2.5 mg/kg s.c.): 80% | Rats whose life was saved ([7]; electroshock-induced lethal convulsions, dose not given): 80%
